For the experiment, the target named is T1, Kir6.2 channel (Mus musculus, UniProt Q61743).
T1 construct: expressed in transfected cells; host or cells: Neuro2A (N2A) cells, transient transfection with pcDNA3.1-Kir6.2 (gift of Dr. Toru Ishizuka, Tohoku University)
T1 sequence (Q61743 1-390): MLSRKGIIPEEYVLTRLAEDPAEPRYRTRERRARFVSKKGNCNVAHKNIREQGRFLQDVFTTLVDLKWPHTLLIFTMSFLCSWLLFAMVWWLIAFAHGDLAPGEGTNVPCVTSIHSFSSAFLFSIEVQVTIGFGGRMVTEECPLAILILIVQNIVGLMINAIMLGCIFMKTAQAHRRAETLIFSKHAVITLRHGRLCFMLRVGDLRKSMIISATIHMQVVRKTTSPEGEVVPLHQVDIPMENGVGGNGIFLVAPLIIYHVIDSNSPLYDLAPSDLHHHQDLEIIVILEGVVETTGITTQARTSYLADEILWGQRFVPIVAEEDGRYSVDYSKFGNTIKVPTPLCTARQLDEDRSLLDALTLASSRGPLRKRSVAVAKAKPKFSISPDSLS
Put plainly: CaMKII activation in N2A cells overexpressing Kir6.2 channel (immunoblotting, anti-phosphorylated CaMKII antibody). Format: cell-based. As to conditions: 10 nM, one hour, Kir6.2 channel overexpressing N2A cells; control without compound = 100%. Here is the method:
A plasmid vector having cDNA of Kir6.2 channel inserted therein: pcDNA3.1-Kir6.2, was obtained from Dr. Toru Ishizuka (Graduate School of Life Sciences, Tohoku University). The plasmid vector, pcDNA3.1-Kir6.2, was conditioned in accordance with the manual attached to GenElute HP Plasmid Maxiprep Kit (manufactured by Sigma-Aldrich). A culture solution (composition: DMEM culture solution 450 mL containing 50 ml of bovine serum and 100 units of penicillin/streptomycin) of Neuro2A cells (N2A cells, the National Instituted of Biomedical Innovation) cultured in DMEM culture solution (Gibco) was exchanged with Opti-Mem (Gibco)(containing Lipofectamine R2000 (1 μg/1 ml)) containing pcDNA3.1-Kir6.2 (1 μg/μl) conditioned above, and cultured for 5 hours to obtain N2A cells overexpressing Kir6.2 channel. Exchange with the DMEM culture solution was again performed and culture was carried out for two days. Thereafter, memantine (manufactured by Sigma-Aldrich) and the compound of the present invention (n=4 per group) were added in the culture solutions (DMEM, Gibco) so as to obtain a concentration of 10 nM based on the culture solution, and the culture solutions were allowed to stand still for one hour. Thereafter, Kir6.2 channel overexpressing N2A cells were collected and an SDS sample buffer was added to the N2A cells to prepare a suspension. The suspension was subjected to immunoblotting by use of an anti-phosphorylated CaMKII antibody (Fukunaga K et al., J. Biol. Chem. 1992, 267, 22527-22533) as a primary antibody and an anti-rabbit IgG antibody (manufactured by SouthernBiotech) as a secondary antibody (other conditions except the aforementioned antibodies were the same as those employed in ordinary immunoblotting), to investigate activation of CaMKII. As a result, in TP-009, TP-010, TP-011, TP-012, TP-014, TP-015, TP-048, TP-049, TP-050, TP-051, TP-052, TP-053, bands showing a reaction with the antibody against phosphorylated CaMKII were obtained. It was confirmed that activation of CaMKII is enhanced. In FIG. 1, the result of the case (control: c) where a test compound was not added is regarded as 100%. CaMKII activation of the cases containing memantine, TP-009, TP-010, TP-011, TP-012, TP-014, TP-015, TP-048, TP-049, TP-050, TP-051, TP-052, TP-053 (corresponding to M, 9, 10, 11, […], 15, 48, 49, 50, 51, 52 and 53, respectively) were shown in FIG. 1.

On to `CCOC(=O)[C@@H](NC(C)=O)[C@@H]1[C@@H]2C[C@H]3C[C@@](Cl)(C2)C[C@]1(O)C3` [TP-010, ethyl (S)-2-acetamido-2-((1R,2S,3R,5R,7R)-5-chloro-1-hydroxyadamantan-2-yl)acetate], for which the “activation of CaMKII (phosphorylated CaMKII bands)” value (“activation of CaMKII” below) is “enhanced”.

Take `COC(=O)[C@@H](NC(=O)C(F)(F)F)[C@@H]1[C@@H]2C[C@H]3C[C@@](Cl)(C2)C[C@]1(OC(=O)C(F)(F)F)C3` [TP-012, (1R,2S,3R,5R,7R)-5-chloro-2-((S)-2-methoxy-2-oxo-1-(2,2,2-trifluoroacetamido)ethyl)adamantan-1-yl 2,2,2-trifluoroacetate]: the “activation of CaMKII” value was “enhanced”.

As for `O=C(N[C@@H](c1cccnc1)[C@H]1[C@H]2C[C@@H]3C[C@](Cl)(C2)C[C@@]1(O)C3)C(F)(F)F` [TP-051, N—((R)-((1S,2R,3S,5S,7S)-5-chloro-1-hydroxyadamantan-2-yl)(pyridin-3-yl)methyl)-2,2,2-trifluoroacetamide], the “activation of CaMKII” value is reported as “enhanced”.

`COCCO[C@@]12C[C@H]3C[C@@H](C1)[C@H]([C@@H](NC(=O)C(F)(F)F)c1ccccc1)[C@](OC(=O)C(F)(F)F)(C3)C2` [TP-050, (1S,2R,3S,5S,7R)-5-(2-methoxyethoxy)-2-((R)-phenyl(2,2,2-trifluoroacetamido)methyl)adamantan-1-yl 2,2,2-trifluoroacetate]: the “activation of CaMKII” value was “enhanced”.

For the compound `O=C(N[C@@H](c1ccccc1)[C@H]1[C@H]2C[C@@H]3C[C@](Cl)(C2)C[C@@]1(O)C3)C(F)(F)F` [TP-048, N—((R)-((1S,2R,3S,5S,7S)-5-chloro-1-hydroxyadamantan-2-yl)(phenyl)methyl)-2,2,2-trifluoroacetamide], the “activation of CaMKII” value is on record as “enhanced”.

Take `CO[C@@]12C[C@H]3C[C@@H](C1)[C@H]([C@@H](NC(=O)C(F)(F)F)c1ccccc1)[C@](OC(=O)C(F)(F)F)(C3)C2` [TP-053, (1S,2R,3S,5S,7R)-5-methoxy-2-((R)-phenyl(2,2,2-trifluoroacetamido)methyl)adamantan-1-yl 2,2,2-trifluoroacetate]: the “activation of CaMKII” value is given as “enhanced”.

Regarding `CCOC(=O)[C@H](NC(C)=O)[C@@H]1[C@@H]2C[C@H]3C[C@@](Cl)(C2)C[C@]1(O)C3` [TP-011, ethyl (R)-2-acetamido-2-((1R,2S,3R,5R,7R)-5-chloro-1-hydroxyadamantan-2-yl)acetate], the “activation of CaMKII” value is reported as “enhanced”.

For `O=C(N[C@@H](c1ccccc1)[C@H]1[C@@H]2C[C@H]3C[C@@H](C2)C[C@]1(O)C3)C(F)(F)F` [TP-052, 2,2,2-trifluoro-N—((R)—((S,2R,3S,5R,7S)-1-hydroxyadamantan-2-yl)(phenyl)methyl) acetamide], the “activation of CaMKII” value is listed as “enhanced”.

As to `N[C@H](C(=O)O)[C@@H]1[C@@H]2C[C@H]3C[C@@](O)(C2)C[C@]1(O)C3` [TP-015, (S)-2-amino-2-((1R,2S,3R,5R,7S)-1,5-dihydroxyadamantan-2-yl)acetic acid], the “activation of CaMKII” value was “enhanced”.

Take `CC(=O)O[C@@H](c1ccccc1)[C@@H]1[C@@H]2C[C@H]3C[C@@](N=[N+]=[N-])(C2)C[C@]1(O)C3` [TP-009, (R)-((1R,2S,3R,5R,7S)-5-azido-1-hydroxyadamantan-2-yl)(phenyl)methyl acetate]: the “activation of CaMKII” value is on record as “enhanced”.

For the compound `O=C(N[C@@H](c1ccccc1)[C@H]1[C@@H]2C[C@H]3C[C@@H](C2)C[C@]1(OC(=O)C(F)(F)F)C3)C(F)(F)F` [TP-049, (1S,2R,3S,5R,7S)-2-((R)-phenyl(2,2,2-trifluoroacetamido)methyl)adamantan-1-yl 2,2,2-trifluoroacetate], the “activation of CaMKII” value was “enhanced”.

The record behind these values is US10487045B2, “Adamantane derivative and use thereof” (TOHOKU UNIVERSITY, priority 2016, dated 2019).
